Reference: patent publication US10189837B2, “Crystalline (8S,9R)-5-fluoro-8-(4-fluorophenyl)-9-(1-methyl-1H-1,2,4-triazol-5-yl)-8,9-dihydro-2H-pyrido[4,3,2-de]phthalazin-3(7H)-one tosylate salt” (Medivation Technologies, LLC, priority 2010, dated 2019)

Key:
Type in all cases: physicochemical
[1] = Thermogravimetric analysis (TGA); conditions: for Weight Change: ramp 10.00 °C/min to 300.00 °C; for % Change in weight: ramp 10.00 °C/min to 400.00 °C
Description: Unless otherwise noted, TGA thermograms were acquired using a TA Instruments Q500 Thermogravimetric Analyzer (New Castle, Del., USA). Samples were weighed out into the pan. Except as noted below, the temperature was ramped from 25.00° C. to 400.00° C. at 10.00° C./minute.
A TGA thermogram for tosylate salt prepared using the steps described in Variation 2 was acquired using a Mettler Toledo Thermogravimetric Analyzer/Differential Scanning Calorimeter 1. The temperature was ramped from 25° C. to 400° C. at 10° C./minute.

[2] = Thermogravimetric analysis (TGA); conditions: ramp 10.00 °C/min to 300.00 °C
[3] = Dynamic vapor sorption (DVS) isotherm
Description: 1 model from Surface Measurement Systems Ltd. (Alperton, Middlesex, UK). A moisture adsorption desorption isotherm was performed as outlined below. The standard isotherm run is a cycle starting at RH 0% to RH 95% at 5% intervals, followed by drying to RH 0% in 5% RH intervals.

[4] = TGA, start about 25 °C, stop 120 °C, tosylate salt
[5] = TGA, start about 25 °C, stop 250 °C, tosylate salt

Compound: Cn1ncnc1[C@H]1c2n[nH]c(=O)c3cc(F)cc(c23)N[C@@H]1c1ccc(F)cc1 [compound 20, (8S,9R)-5-fluoro-8-(4-fluorophenyl)-9-(1-methyl-1H-1,2,4-triazol-5-yl)-8,9-dihydro-2H-pyrido[4,3,2-de]phthalazin-3(7H)-one]
- Weight Change ([1]; TGA at 174.03 °C): 3.167%
- Weight Change ([2]; TGA at 120 °C): 1.926%
- Weight Change ([2]; TGA at 189.67 °C): 3.234%
- Weight Change ([2]; TGA at 256.48 °C): 3.448%

Compound: Cc1ccc(S(=O)(=O)O)cc1.Cn1ncnc1[C@H]1c2n[nH]c(=O)c3cc(F)cc(c23)N[C@@H]1c1ccc(F)cc1 [compound 5, (8S,9R)-5-fluoro-8-(4-fluorophenyl)-9-(1-methyl-1H-1,2,4-triazol-5-yl)-8,9-dihydro-2H-pyrido[4,3,2-de]phthalazin-3(7H)-one tosylate salt]
- % Change in weight ([1]; TGA, start 25.13 °C, stop 340.46 °C): 43.54%
- % Change in weight [1, 4]: 0.1231%
- % Change in weight [1, 5]: 0.2894%

Compound: Cc1ccc(S(=O)(=O)O)cc1.Cn1ncnc1[C@H]1c2n[nH]c(=O)c3cc(F)cc(c23)N[C@@H]1c1ccc(F)cc1 [compound 7, (8S,9R)-5-fluoro-8-(4-fluorophenyl)-9-(1-methyl-1H-1,2,4-triazol-5-yl)-8,9-dihydro-2H-pyrido[4,3,2-de]phthalazin-3(7H)-one tosylate salt]
- % Change in weight ([1]; TGA, start 25.5 °C, stop 334 °C): 26.55%
- % Change in weight [1, 4]: 0.2109%
- % Change in weight [1, 5]: 2.552%

Compound: Cn1ncnc1[C@H]1c2n[nH]c(=O)c3cc(F)cc(c23)N[C@@H]1c1ccc(F)cc1 [compound 11, (8S,9R)-5-fluoro-8-(4-fluorophenyl)-9-(1-methyl-1H-1,2,4-triazol-5-yl)-8,9-dihydro-2H-pyrido[4,3,2-de]phthalazin-3(7H)-one]
- weight loss ([1]; TGA at 134.8 °C): 5.72%

Compound: Cn1ncnc1[C@H]1c2n[nH]c(=O)c3cc(F)cc(c23)N[C@@H]1c1ccc(F)cc1 [compound 19, (8S,9R)-5-fluoro-8-(4-fluorophenyl)-9-(1-methyl-1H-1,2,4-triazol-5-yl)-8,9-dihydro-2H-pyrido[4,3,2-de]phthalazin-3(7H)-one]
- Weight Change ([1]; TGA at 161 °C): 4.256%
- Weight Change ([2]; TGA at 120 °C): 1.054%
- Weight Change ([2]; TGA at 174 °C): 5.977%
- Weight Change ([2]; TGA at 185 °C): 7.82%
- Weight Change ([2]; TGA at 238 °C): 8.874%

Compound: Cc1ccc(S(=O)(=O)O)cc1.Cn1ncnc1[C@H]1c2n[nH]c(=O)c3cc(F)cc(c23)N[C@@H]1c1ccc(F)cc1 [compound 8, (8S,9R)-5-fluoro-8-(4-fluorophenyl)-9-(1-methyl-1H-1,2,4-triazol-5-yl)-8,9-dihydro-2H-pyrido[4,3,2-de]phthalazin-3(7H)-one tosylate salt]
- % Change in weight ([1]; TGA, start 24.9 °C, stop 274.33 °C): 2.071%
- % Change in weight ([1]; TGA, start 24.9 °C, stop 320 °C): 19.97%
- % Change in weight ([1]; TGA, start 24.9 °C, stop 335 °C): 34.56%
- % Change in weight ([1]; TGA, start 24.9 °C, stop 363.03 °C): 50.39%
- % Change in weight ([1]; TGA, start 24.9 °C, stop 394.92 °C): 54.39%
- % Change in weight [1, 4]: 0.06696%
- weight gain (DVA) ([3]; from 0%-95% RH): 0.1574%

Compound: Cc1ccc(S(=O)(=O)O)cc1.Cn1ncnc1[C@H]1c2n[nH]c(=O)c3cc(F)cc(c23)N[C@@H]1c1ccc(F)cc1 [compound 6, (8S,9R)-5-fluoro-8-(4-fluorophenyl)-9-(1-methyl-1H-1,2,4-triazol-5-yl)-8,9-dihydro-2H-pyrido[4,3,2-de]phthalazin-3(7H)-one tosylate salt]
- % Change in weight ([1]; TGA, start 25.2 °C, stop 338.56 °C): 24.56%
- % Change in weight [1, 4]: 0.0388%
- % Change in weight [1, 5]: 0.5425%

Compound: Cn1ncnc1[C@H]1c2n[nH]c(=O)c3cc(F)cc(c23)N[C@@H]1c1ccc(F)cc1 [compound 3, (8S,9R)-5-fluoro-8-(4-fluorophenyl)-9-(1-methyl-1H-1,2,4-triazol-5-yl)-8,9-dihydro-2H-pyrido[4,3,2-de]phthalazin-3(7H)-one]
- Weight Change ([1]; TGA at 152 °C): 2.584%
- Weight Change ([1]; TGA at 205 °C): 3.42%
- Weight Change ([1]; TGA at 250 °C): 5.193%
- Weight Change ([2]; TGA at 120 °C): 2.33%
- Weight Change ([2]; TGA at 178 °C): 2.829%

Compound: Cn1ncnc1[C@H]1c2n[nH]c(=O)c3cc(F)cc(c23)N[C@@H]1c1ccc(F)cc1 [compound 12, (8S,9R)-5-fluoro-8-(4-fluorophenyl)-9-(1-methyl-1H-1,2,4-triazol-5-yl)-8,9-dihydro-2H-pyrido[4,3,2-de]phthalazin-3(7H)-one]
- weight loss ([1]; TGA at 139.06 °C): 7.034%

Compound: Cn1ncnc1[C@H]1c2n[nH]c(=O)c3cc(F)cc(c23)N[C@@H]1c1ccc(F)cc1 [compound 24, (8S,9R)-5-fluoro-8-(4-fluorophenyl)-9-(1-methyl-1H-1,2,4-triazol-5-yl)-8,9-dihydro-2H-pyrido[4,3,2-de]phthalazin-3(7H)-one]
- weight loss ([1]; TGA at 223.8 °C): 17.47%
- weight loss ([1]; TGA, ambient to 120 °C): 0.9388%

Compound: Cn1ncnc1[C@H]1c2n[nH]c(=O)c3cc(F)cc(c23)N[C@@H]1c1ccc(F)cc1 [compound 1, (8S,9R)-5-fluoro-8-(4-fluorophenyl)-9-(1-methyl-1H-1,2,4-triazol-5-yl)-8,9-dihydro-2H-pyrido[4,3,2-de]phthalazin-3(7H)-one]
- Weight Change ([1]; TGA at 225 °C): 9.125%
- Weight Change ([1]; TGA at 252 °C): 9.265%
- Weight Change ([2]; TGA at 120 °C): 1.45%
- Weight Change ([2]; TGA at 238 °C): 9.214%
- Weight Change ([2]; TGA at […]): 4.068%

Compound: Cn1ncnc1[C@H]1c2n[nH]c(=O)c3cc(F)cc(c23)N[C@@H]1c1ccc(F)cc1 [compound 21, (8S,9R)-5-fluoro-8-(4-fluorophenyl)-9-(1-methyl-1H-1,2,4-triazol-5-yl)-8,9-dihydro-2H-pyrido[4,3,2-de]phthalazin-3(7H)-one]
- weight loss ([1]; TGA at 142.46 °C): 3.7%
- weight loss ([1]; TGA at 256.48 °C): 4.259%

Compound: Cc1ccc(S(=O)(=O)O)cc1.Cn1ncnc1[C@H]1c2n[nH]c(=O)c3cc(F)cc(c23)N[C@@H]1c1ccc(F)cc1 [(8S,9R)-5-fluoro-8-(4-fluorophenyl)-9-(1-methyl-1H-1,2,4-triazol-5-yl)-8,9-dihydro-2H-pyrido[4,3,2-de]phthalazin-3(7H)-one mono-tosylate salt]
- stability to heat (TGA trace) ([1]; 25 °C to 400 °C at 10 °C/minute, prior to the onset of decomposition at the melting point): stable to heat
- hygroscopicity (DVS) ([3]; 25 °C, humidity 0% to 95%): not hygroscopic
- weight gain (DVS) ([3]; 25 °C, humidity increased from 0% to 95%): less than 1%
- Change in Mass (%) Desorption ([3]; Target % P/Po 0.0): −0.0015%
- Change in Mass (%) Desorption ([3]; Target % P/Po 5.0): 0.0203%
- Change in Mass (%) Desorption ([3]; Target % P/Po 10.0): 0.0326%
- Change in Mass (%) Desorption ([3]; Target % P/Po 15.0): 0.0421%
- Change in Mass (%) Desorption ([3]; Target % P/Po 20.0): 0.0513%
- Change in Mass (%) Desorption ([3]; Target % P/Po 25.0): 0.0649%
- Change in Mass (%) Desorption ([3]; Target % P/Po 30.0): 0.0791%
- Change in Mass (%) Desorption ([3]; Target % P/Po 35.0): 0.0947%
- Change in Mass (%) Desorption ([3]; Target % P/Po 40.0): 0.1084%
- Change in Mass (%) Desorption ([3]; Target % P/Po 45.0): 0.1266%
- Change in Mass (%) Desorption ([3]; Target % P/Po 50.0): 0.1456%
- Change in Mass (%) Desorption ([3]; Target % P/Po 55.0): 0.1668%
- Change in Mass (%) Desorption ([3]; Target % P/Po 60.0): 0.1895%
- Change in Mass (%) Desorption ([3]; Target % P/Po 65.0): 0.2192%
- Change in Mass (%) Desorption ([3]; Target % P/Po 70.0): 0.2535%
- Change in Mass (%) Desorption ([3]; Target % P/Po 75.0): 0.2919%
- Change in Mass (%) Desorption ([3]; Target % P/Po 80.0): 0.3402%
- Change in Mass (%) Desorption ([3]; Target % P/Po 85.0): 0.4113%
- Change in Mass (%) Desorption ([3]; Target % P/Po 90.0): 0.5230%
- Change in Mass (%) Desorption ([3]; Target % P/Po 95.0): 0.7473%
